For series [1], the system named is P. chabaudi AS. As to the kind of experiment: Standard 4-day Peters' test against P. chabaudi AS in mice. The series is classed as in vivo, Plasmodium chabaudi. As to conditions: for ED50 / ED90: Plasmodium chabaudi, 96 h, oral, 4-day Peters' test; for ED50: 50% reduction in parasitaemia; for ED90: 90% reduction in parasitaemia. The method, then:
(§1) Briefly, 20 gr CD1 male mice (Charles Rivers, UK) were kept in specific pathogen-free conditions and fed ad libitum. For oral administration, compounds were dissolved in standard suspending formula (SSV) [0.5% sodium carboxymethylcellulose, 0.5% benzyl alcohol, 0.4% Tween 80, 0.9% NaCl (all Sigma)] and for intraperitoneal or subcutaneous administration compounds were dissolved in 0.5% w/v hydroxypropylmethylcellulose, 0.4% v/v Tween 80, 0.5% V/v benzyl alcohol in de-ionised water]. Mice were infected intravenously with 4×10^6 infected red cells and treated orally (p.o.) with 0.2 ml of a solution of the test compounds two hours (day 0) and on days 1, 2 and 3 post-infection. Parasitaemia was determined by microscopic examination of Giemsa stained blood films taken on day 4. Microscopic counts of blood films from each mouse were processed using GraphPad Prism 4 (GraphPad Software, Inc., CA, USA) and expressed as percentages of inhibition from the arithmetic mean parasitaemias of each group in relation to the untreated group. Compounds were tested in an initial screening at 30 mg/kg/day against P. chabaudi AS (non-resistant) over the period described and percentages of inhibition calculated in relation to the untreated controls. Compounds giving 80% inhibition or above were then tested in the same model under a range of doses over the period described in order to obtain dose response curves and calculate their ED50 and ED90 values. […] From the ED90 values is clear that a number of compounds have exquisite activity in this model and are also tested in P. chabaudi ASP and P. berghei ANKA.

The test system of another series is S. aureus. The series is described as follows: Antibacterial activity, minimal inhibitory concentration on agar plates. The series is classed as cell-based. To be noted: Staphylococcus aureus; complete inhibition of growth on agar plates.
In another series the test system is E. coli. The description is as above. The series is classed as cell-based. To be noted: Escherichia coli; complete inhibition of growth on agar plates.
The next series deals with T1, Pf DHFR WT (Plasmodium falciparum, UniProt A7UD81).
T1 construct: made in house; host or cells: E. coli BL21(DE3)pLysS
As to the kind of experiment: Pf DHFR enzyme inhibition (Ki), wild type. The series is classed as biochemical.

In a further series the target is T2, Pf DHFR C59R + S108N (Plasmodium falciparum, UniProt A7UD81, C59R/S108N).
T2 construct: made in house; host or cells: E. coli BL21(DE3)pLysS
The series is described as follows: biochemical.

The target of series [2] is T3, Pf DHFR N51I + C59R + S108N (Plasmodium falciparum, UniProt A7UD81, C59R/N51I/S108N).
T3 construct: made in house; host or cells: E. coli BL21(DE3)pLysS
As to the kind of experiment: biochemical.

Series [3] addresses T4, Pf DHFR C59R + S108N + I164L (Plasmodium falciparum, UniProt A7UD81, C59R/I164L/S108N).
T4 construct: made in house; host or cells: E. coli BL21(DE3)pLysS
As to the kind of experiment: biochemical.

The target of series [4] is T5, Pf DHFR N51I + C59R + S108N + I164L (Plasmodium falciparum, UniProt A7UD81, C59R/I164L/N51I/S108N).
T5 construct: made in house; host or cells: E. coli BL21(DE3)pLysS
The series is described as follows: biochemical.

For series [5], the system named is P. falciparum TM4/8.2 (wild type). The series is described as follows: In vitro anti-plasmodial activity, [3H]-hypoxanthine incorporation. The series is classed as cell-based, Plasmodium falciparum. As to conditions: Plasmodium falciparum, read-out: IC50-P. falciparum TM4/8.2 (WT), TM4/8.2.
The nature of series [6]: Cytotoxicity in mammalian cells. The series is classed as cell-based. As to conditions: African green monkey, Vero cells (African green monkey kidney epithelial cells).
Series [7] can be described thus: Oral bioavailability and pharmacokinetics in male Sprague Dawley rats. As to conditions: for Oral BA: i.v. and oral dosing; for Vd: intravenous; for clearance: read-out: i.v. CL(plasma). The series is classed as in vivo. The method, then:
Rats had free access to water throughout the pre- and post-dose sampling period, and access to food was re-instated 4 hours post-dosing. Test compounds were administered intravenously as a 5 minute constant rate infusion (1.0 mL per rat) and orally by gavage (1.0 mL per rat). The IV formulations were typically buffered aqueous solutions containing a co-solvent if required for solubilization. The oral formulations were prepared as suspensions in hydroxypropylmethyl cellulose or carboxymethyl cellulose, each with the addition of Tween 80 and benzyl alcohol. Samples of arterial blood and total urine were collected up to 24 hours post-dose. Arterial blood was collected directly into borosilicate vials (at 4° C.) containing heparin, a protease inhibitor cocktail, potassium fluoride, and EDTA to minimise the potential for ex vivo degradation of the test compound in blood/plasma samples. Once collected, blood samples were centrifuged, supernatant plasma was removed and stored at −20° C., and plasma concentrations of test compound were determined by LCMS.

The subject of a further series is P. falciparum Wild Type. As to the kind of experiment: Anti-malarial activity against P. falciparum in vitro, wild type (Table 1). To be noted: Plasmodium falciparum. The series is classed as cell-based, Plasmodium falciparum.
For series [8], the system named is P. falciparum Resistant mutant. As to the kind of experiment: Anti-malarial activity against P. falciparum in vitro, resistant mutant (Table 1). The series is classed as cell-based, Plasmodium falciparum. To be noted: Plasmodium falciparum, read-out: IC50 against P. falciparum in vitro, Resistant mutant.
The next series relates to P. chabaudi ASP. As to the kind of experiment: Standard 4-day Peters' test against P. chabaudi ASP (pyrimethamine-resistant) in mice. The series is classed as in vivo, Plasmodium chabaudi. To be noted: for ED50: Plasmodium chabaudi, po, read-out: ED50 P. chabaudi ASP; for ED90 P. chabaudi ASP: oral, pyrimethamine-resistant strain. As to the method:
as §1

The test system of the next series is P. berghei ANKA. As to the kind of experiment: Standard 4-day Peters' test against P. berghei ANKA in mice. To be noted: oral, lethal non-resistant strain; for ED50: Plasmodium berghei. The series is classed as in vivo, Plasmodium berghei. As to the method: as §1
The conditions of series [9]: rat, in vivo.
The test system of series [10] is P. chabaudi AS. The series is described as follows: Standard 4-day Peters' test against P. chabaudi AS in mice. The series is classed as in vivo, Plasmodium chabaudi. To be noted: s.c. administration, mice (Table 1).

Converted amounts (≈) assume the structure as drawn.

T5 sequence (A7UD81 whole entry N51I/C59R/S108N/I164L): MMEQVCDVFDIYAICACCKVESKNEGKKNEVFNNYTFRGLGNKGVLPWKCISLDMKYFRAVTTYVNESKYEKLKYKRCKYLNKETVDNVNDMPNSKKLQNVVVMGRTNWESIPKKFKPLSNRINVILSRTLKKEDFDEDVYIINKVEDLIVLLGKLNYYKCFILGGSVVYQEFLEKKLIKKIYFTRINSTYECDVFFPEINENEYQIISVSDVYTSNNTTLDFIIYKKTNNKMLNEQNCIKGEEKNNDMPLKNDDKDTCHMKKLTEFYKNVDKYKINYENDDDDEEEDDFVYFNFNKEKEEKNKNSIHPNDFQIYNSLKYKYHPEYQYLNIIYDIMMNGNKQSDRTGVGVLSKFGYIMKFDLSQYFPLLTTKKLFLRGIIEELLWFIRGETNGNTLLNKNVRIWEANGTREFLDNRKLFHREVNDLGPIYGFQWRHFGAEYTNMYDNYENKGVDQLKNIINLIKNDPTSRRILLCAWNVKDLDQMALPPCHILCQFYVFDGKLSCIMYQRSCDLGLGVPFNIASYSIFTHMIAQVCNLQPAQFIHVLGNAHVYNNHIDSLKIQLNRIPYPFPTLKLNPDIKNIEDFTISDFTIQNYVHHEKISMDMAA
T4 sequence (A7UD81 whole entry C59R/S108N/I164L): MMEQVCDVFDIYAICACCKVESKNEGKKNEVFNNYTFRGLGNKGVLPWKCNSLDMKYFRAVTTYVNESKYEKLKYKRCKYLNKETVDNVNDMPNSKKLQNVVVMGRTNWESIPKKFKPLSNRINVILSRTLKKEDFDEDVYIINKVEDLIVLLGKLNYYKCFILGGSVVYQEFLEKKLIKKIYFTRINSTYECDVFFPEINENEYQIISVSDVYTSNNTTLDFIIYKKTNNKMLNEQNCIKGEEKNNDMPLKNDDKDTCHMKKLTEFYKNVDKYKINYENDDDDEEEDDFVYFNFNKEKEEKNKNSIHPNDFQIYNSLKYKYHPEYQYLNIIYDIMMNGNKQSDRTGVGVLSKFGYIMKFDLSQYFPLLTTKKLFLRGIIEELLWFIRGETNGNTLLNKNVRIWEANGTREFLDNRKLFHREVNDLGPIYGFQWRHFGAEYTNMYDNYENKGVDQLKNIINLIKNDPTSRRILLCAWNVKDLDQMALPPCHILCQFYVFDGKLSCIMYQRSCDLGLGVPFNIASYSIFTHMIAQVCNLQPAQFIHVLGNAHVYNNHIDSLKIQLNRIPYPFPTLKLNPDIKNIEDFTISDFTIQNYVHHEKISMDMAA
T3 sequence (A7UD81 whole entry N51I/C59R/S108N): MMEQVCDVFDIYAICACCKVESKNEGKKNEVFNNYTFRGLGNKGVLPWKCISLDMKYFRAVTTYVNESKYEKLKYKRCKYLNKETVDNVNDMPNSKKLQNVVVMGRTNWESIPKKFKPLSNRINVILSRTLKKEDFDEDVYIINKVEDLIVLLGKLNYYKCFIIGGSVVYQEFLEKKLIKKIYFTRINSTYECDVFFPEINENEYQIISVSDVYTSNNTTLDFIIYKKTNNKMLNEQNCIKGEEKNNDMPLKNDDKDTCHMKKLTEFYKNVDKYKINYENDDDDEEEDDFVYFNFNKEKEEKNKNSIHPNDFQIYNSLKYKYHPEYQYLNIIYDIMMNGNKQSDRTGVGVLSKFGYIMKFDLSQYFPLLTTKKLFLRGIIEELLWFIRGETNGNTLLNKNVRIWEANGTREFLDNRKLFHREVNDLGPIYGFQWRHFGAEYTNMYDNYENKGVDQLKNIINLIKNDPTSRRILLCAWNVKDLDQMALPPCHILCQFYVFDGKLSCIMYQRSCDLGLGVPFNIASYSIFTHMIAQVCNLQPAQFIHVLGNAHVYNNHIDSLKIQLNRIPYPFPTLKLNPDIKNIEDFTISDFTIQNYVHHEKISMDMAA
T1 sequence (A7UD81 1-608): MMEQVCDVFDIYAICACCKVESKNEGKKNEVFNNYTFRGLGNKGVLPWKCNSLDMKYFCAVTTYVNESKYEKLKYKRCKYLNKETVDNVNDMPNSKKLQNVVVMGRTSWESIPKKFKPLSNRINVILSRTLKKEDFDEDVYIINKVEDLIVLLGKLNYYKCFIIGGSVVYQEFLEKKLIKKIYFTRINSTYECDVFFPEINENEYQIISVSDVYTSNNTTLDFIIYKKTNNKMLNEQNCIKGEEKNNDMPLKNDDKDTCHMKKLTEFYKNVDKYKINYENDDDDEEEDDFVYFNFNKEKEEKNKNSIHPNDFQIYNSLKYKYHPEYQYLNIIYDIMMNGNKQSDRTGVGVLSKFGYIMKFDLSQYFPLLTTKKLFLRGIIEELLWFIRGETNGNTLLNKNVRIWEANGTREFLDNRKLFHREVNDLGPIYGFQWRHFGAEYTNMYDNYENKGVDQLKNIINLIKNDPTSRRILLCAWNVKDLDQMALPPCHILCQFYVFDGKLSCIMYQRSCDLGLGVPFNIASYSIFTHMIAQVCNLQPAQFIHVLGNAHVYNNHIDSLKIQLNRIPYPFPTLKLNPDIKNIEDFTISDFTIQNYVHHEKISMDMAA
T2 sequence (A7UD81 whole entry C59R/S108N): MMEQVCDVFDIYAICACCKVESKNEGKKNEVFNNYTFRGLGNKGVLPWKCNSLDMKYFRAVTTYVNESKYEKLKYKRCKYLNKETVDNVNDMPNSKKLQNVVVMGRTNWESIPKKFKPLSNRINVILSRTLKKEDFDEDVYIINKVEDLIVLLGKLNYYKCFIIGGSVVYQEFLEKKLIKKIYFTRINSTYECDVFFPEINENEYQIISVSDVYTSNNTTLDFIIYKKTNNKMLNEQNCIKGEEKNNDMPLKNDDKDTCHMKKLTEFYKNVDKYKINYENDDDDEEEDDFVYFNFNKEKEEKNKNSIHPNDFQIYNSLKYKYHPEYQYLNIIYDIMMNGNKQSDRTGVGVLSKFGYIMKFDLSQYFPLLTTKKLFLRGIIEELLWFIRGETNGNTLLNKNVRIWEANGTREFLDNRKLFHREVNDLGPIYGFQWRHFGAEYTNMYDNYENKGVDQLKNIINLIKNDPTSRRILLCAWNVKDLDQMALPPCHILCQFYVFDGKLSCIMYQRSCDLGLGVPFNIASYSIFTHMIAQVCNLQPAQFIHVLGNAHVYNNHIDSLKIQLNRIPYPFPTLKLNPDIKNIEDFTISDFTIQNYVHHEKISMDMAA

What is called ED50 is the dose at which the effect has come halfway, by size or by number of responders. What is called MIC is the lowest concentration found to suppress growth. Broadly, the Ki is the dissociation constant of the complex between target and ligand, obtained from inhibition or displacement. With `CCc1nc(N)nc(N)c1OCCCOc1ccccc1OCCCC(=O)O` [Compound P135, 2,4-diamino-6-ethyl-5-(3-(2-(3-carboxypropoxy)phenoxy)propoxy)pyrimidine], in the series on P. chabaudi AS [1], the ED50 is 2 mg/kg. The molecule also registered an ED90 with P. chabaudi AS [1] of 5.2 mg/kg. The MIC in the series on S. aureus and against E. coli was greater than 50 µM in each case. Further, the Ki on Pf DHFR WT was determined as 0.72 ± 0.03 nM; on Pf DHFR C59R + S108N, 0.98 ± 0.003 nM; in [2], 1.2 ± 0.05 nM; in [3] it was 2.54 ± 0.04 nM; in [4], 3.47 ± 0.09 nM. The IC50 in series [5] was 1.6 ± 0.6 nM; in series [6], greater than 10000 nM. In [7], the “Oral BA” value is 7.0 % of dose. For the same molecule, the Vd in series [7] (rat, plasma) came out at 1.6 L/kg. Moreover, the clearance in series [7] (rat, plasma, iv, i.v. dosing) came to 49.1 mL/min/kg.

`CCc1nc(N)nc(N)c1OCCCOc1ccnc2ccc(Cl)cc12` [Compound P149, 2,4-diamino-6-ethyl-5-(3-(6-chloro-quinolin-4-yloxy)propoxy)pyrimidine]: in the series with P. chabaudi AS [1], the ED50 was 0.01 mg/kg. This molecule also yielded an ED90 in the series on P. chabaudi AS [1] of 0.02 mg/kg. The MIC against S. aureus fell in the range of 1 to 10 µM (≈ 0.374 to 3.74 µg/mL); with E. coli, 10 to 50 µM (≈ 3.74 to 18.7 µg/mL). Besides, the Ki at Pf DHFR WT was determined as 1.05 ± 0.18 nM; at Pf DHFR C59R + S108N, 2.37 ± 0.16 nM; in series [2] it was 3.4 ± 0.15 nM; in series [3], 3.66 ± 0.48 nM; in series [4], 4.23 ± 1.06 nM. Besides, in [5], the IC50 came to 3.2 ± 0.7 nM. Moreover, the “Oral BA” value in [7] is given as 10 % of dose. The Vd in [7] (rat, plasma) came to 51.2 L/kg. For the same molecule, the clearance in series [7] (rat, plasma, iv, i.v. dosing) came out at 66.3 mL/min/kg. For the same molecule, in series [7] (rat, plasma, iv, i.v. dosing, read-out: i.v. t1/2 (converted)), the half-life is 24.3 h.

`CCc1nc(N)nc(N)c1-c1ccc(Cl)cc1` [Pyrimethamine, pyrimethamine, reference compound]: the IC50 is 79 nM in the series on P. falciparum Wild Type, greater than 100000 nM in [8] and 58 ± 30 nM in series [5]. Further, the results for the ED50 in the series with P. chabaudi AS [1], in the series on P. chabaudi ASP and in the series on P. berghei ANKA were 0.25 mg/kg, 1.8 mg/kg and 0.5 mg/kg, respectively. In the series with P. chabaudi AS [1], this molecule yielded an ED90 of 0.88 mg/kg. For the same molecule, the “ED90 P. chabaudi AS, oral” value in the series with P. chabaudi AS [1] (oral administration, mice (Table 1)) is 0.88 mg/kg. The MIC against S. aureus and against E. coli was greater than 50 µM each time. Also, in the series with P. chabaudi ASP, the “ED90 P. chabaudi ASP” value came to 13.5 mg/kg. Further, in the series with P. berghei ANKA, the “ED90 P. berghei ANKA” value came to 3.2 mg/kg. For the same molecule, the “Oral BA in rats” value in series [9] is listed as roughly 100%. In addition, in the series on P. chabaudi AS [10], the “ED90 P. chabaudi AS, s.c.” value is listed as 0.25 mg/kg.

Regarding `CCc1nc(N)nc(N)c1OCCCOc1ccnc2ccccc12` [Compound P113, 2,4-diamino-6-ethyl-5-(3-(quinolin-4-yloxy)propoxy)pyrimidine], the ED50 in the series with P. chabaudi AS [1] was determined as 0.006 mg/kg; in the series on P. chabaudi ASP, 0.003 mg/kg; in the series on P. berghei ANKA, 0.01 mg/kg. This molecule also registered an ED90 in the series with P. chabaudi AS [1] of 0.01 mg/kg. The Ki at Pf DHFR WT turned out to be 1.21 ± 0.17 nM; at Pf DHFR C59R + S108N it was 1.86 ± 0.11 nM; in series [2] it was 1.82 ± 0.17 nM; in series [3] it was 3.06 ± 0.21 nM; in [4] it was 4.33 ± 0.28 nM. Further, the IC50 in series [5] was found to be 4 ± 3 nM; in series [6] it was 119 nM. Also, in the series with P. chabaudi ASP, the “ED90 P. chabaudi ASP” value is 0.01 mg/kg. The “ED90 P. berghei ANKA” value in the series with P. berghei ANKA is given as 0.03 mg/kg. Moreover, in series [7], the “Oral BA” value is given as <2.0 % of dose.

Values taken from patent publication US8530491B2, “Antimalarial compounds with flexible side-chains” (Medicines for Malaria Venture (MMV), priority 2007, dated 2013).
